≈ marks a conversion by molar mass, not a printed value.
What was measured:
HeLa [1] = experiment: Tested for cytotoxic activity in human epithelial cell line (HeLa); type: functional
Vero [2] = experiment: Tested for antiviral activity against parainfluenza virus in african green monkey kidney cell (Vero); type: functional; settings: Chlorocebus sabaeus
E6SM [3] = experiment: Tested for antiviral activity against herpes simplex virus type 1(KOS) in E6SM cell line(human embryonic skin-muscle fibroblasts); type: functional
E6SM [4] = experiment: Tested for cytotoxic activity in human embryonic skin muscle fibroblast (E6SM); type: functional; settings: Muscle tissue
HEL [5] = experiment: Tested for antiviral activity against thymidine kinase wild type Varicella zoster virus in human embryonic lung fibroblast; type: functional
Vero [6] = experiment: Tested for antiviral activity against Reo-1 virus in African green monkey kidney cell (Vero); type: functional; settings: Chlorocebus sabaeus
Vero [7] = experiment: Tested for antiviral activity against Sindbis virus in African green monkey kidney cell (Vero); type: functional; settings: Chlorocebus sabaeus
E6SM [8] = experiment: The compound was tested for antiviral activity against thymidine kinase-deficient (TK-HSV-1)virus in E6SM cell line(human embryonic skin-muscle fibroblasts); type: functional
HEL [9] = experiment: Tested for cytotoxic activity in human embryonic lung fibroblast (HEL); type: functional
Vero [10] = experiment: Tested for antiviral activity against coxsackie B-4 virus in African green monkey kidney cell (Vero); type: functional; settings: Chlorocebus sabaeus
HeLa [11] = experiment: Tested for antiviral activity against coxsackie-B4 virus in human epithelial cell line; type: functional
HEL [12] = experiment: Tested for antiviral activity against thymidine kinase deficient Varicella zoster virus in human embryonic lung fibroblasts; type: functional
E6SM [13] = experiment: Tested for antiviral activity against thymidine kinase-deficient (TK-HSV-2G) virus in E6SM cell line(human embryonic skin-muscle fibroblasts); type: functional
E6SM [14] = experiment: Tested for antiviral activity against VSV-virus in human embryonic skin muscle fibroblasts; type: functional; settings: Muscle tissue
Vero [15] = experiment: Tested for antiviral activity against Punta toro virus in African green monkey kidney cell (Vero); type: functional; settings: Chlorocebus sabaeus
HeLa [16] = experiment: The compound was tested for antiviral activity against VSV-virus in human epithelial cells; type: functional
E6SM [17] = experiment: Tested for antiviral activity against vaccinia virus in human embryonic skin muscle fibroblast; type: functional; settings: Muscle tissue
Vero [18] = experiment: Tested for cytotoxic activity in African green monkey kidney cells (Vero); type: functional; settings: Chlorocebus sabaeus
MOLT-4 [19] = experiment: Tested for the inhibitory concentration against cell growth of Tcell leukemic cell line MOLT-4 using MTT assay; type: functional; settings: Homo sapiens
K562 [20] = experiment: Tested for the concentration required to reduce the viability of leukemia cells by 50% against cell growth of K562 chronic myeloid leukemia using MTT assay; type: functional; settings: Homo sapiens, read-out: LC50 (the source's name)
Escherichia coli = experiment: Tested for the antimicrobial activity against Escherichia coli ATCC 25922; type: functional
HEL [21] = experiment: Tested for antiviral activity against human cytomegalovirus (AD-169) in human embryonic lung fibroblasts; type: functional
Klebsiella pneumoniae = experiment: Tested for the antimicrobial activity against Klebsiella pneumoniae ATCC 13883; type: functional
E6SM [22] = experiment: Antiviral activity against thymidine kinase-deficient (TK-HSV-1)virus in E6SM cell line(human embryonic skin-muscle fibroblasts); type: functional
Staphylococcus hominis = experiment: Tested for the antimicrobial activity against Staphylococcus hominis ATCC 27844; type: functional
RPMI-8226 [23] = experiment: Tested for the concentration required to reduce the viability of leukemia cells by 50% against cell growth of RPMI8226 multiple myeloma using MTT assay; type: functional; settings: Homo sapiens, read-out: LC50 (the source's name)
CCRF-CEM [24] = experiment: Tested for the concentration required to reduce the viability of leukemia cells by 50% against cell growth of T cell leukemia cell line CCRF-CEM using MTT assay; type: functional; settings: Homo sapiens
HuT78 [25] = experiment: Tested for the concentration required to reduce the viability of leukemia cells by 50% against cell growth of HuT78 T lymphoma using MTT assay; type: functional; settings: Homo sapiens
MT4 [26] = experiment: Tested for effective concentration required to protect MT-4 cells against the cytopathicity of HIV-2(ROD); type: functional, cell-based; settings: Homo sapiens
RPMI-8226 [27] = experiment: Tested for the inhibitory concentration against cell growth of […] multiple myeloma using MTT assay; type: functional; settings: Homo sapiens
HL-60 [28] = experiment: Tested for the inhibitory concentration against cell growth of HL60 acute myeloid leukemia using MTT assay; type: functional; settings: Homo sapiens
CCRF-CEM [29] = experiment: Tested for the inhibitory concentration against cell growth of human leukemic cell line CCRF-CEM; type: functional
K562 [30] = experiment: Tested for the inhibitory concentration against cell growth of K562 chronic myeloid leukemia using MTT assay; type: functional; settings: Homo sapiens
HL-60 [31] = experiment: Tested for the concentration required to reduce the viability of leukemia cells by 50% against cell growth of HL60 acute myeloid leukemia using MTT assay; type: functional; settings: Homo sapiens, read-out: LC50 (the source's name)
HuT78 [32] = experiment: Tested for the inhibitory concentration against cell growth of human leukemic cell line HuT78; type: functional
MT4 [33] = experiment: Tested for effective concentration required to protect MT-4 cells against the cytopathicity of HIV-1(IIIB); type: functional; settings: Homo sapiens, read-out: LC50 (the source's name)
MOLT-4 [34] = experiment: Tested for the inhibitory concentration against cell growth of human leukemic cell line MOLT-4; type: functional
MT4 [35] = experiment: Tested for cytotoxic concentration required to reduce the viability of MT-4 cells by 50%; type: functional, cell-based; settings: Homo sapiens, read-out: EC50 (the source's name)
HuT78 [36] = experiment: Tested for the inhibitory concentration against cell growth of HuT78 T lymphoma using MTT assay; type: functional; settings: Homo sapiens
K562 [37] = experiment: Tested for the inhibitory concentration against cell growth of human leukemic cell line K562; type: functional
MOLT-4 [38] = experiment: Tested for the concentration required to reduce the viability of leukemia cells by 50% against cell growth of T cell leukemia cell line MOLT-4 using MTT assay; type: functional; settings: Homo sapiens
[39] = system: Staphylococcus epidermidis; experiment: Tested for the antimicrobial activity against Staphylococcus epidermidis ATCC 12228; type: functional
HL-60 [40] = experiment: Tested for the inhibitory concentration against cell growth of human leukemic cell line HL60; type: functional
Staphylococcus aureus = experiment: Tested for the antimicrobial activity against Staphylococcus aureus ATCC 6538; type: functional
CCRF-CEM [41] = experiment: Tested for the inhibitory concentration against cell growth of Tcell leukemic cell line CCRF-CEM using MTT assay; type: functional; settings: Homo sapiens
RPMI-8226 [42] = experiment: Tested for the inhibitory concentration against cell growth of human leukemic cell line RPMI8226; type: functional

O=c1[nH]c(=O)n([C@H]2C[C@H](O)[C@@H](CO)O2)cc1/C=C/Br [BRIVUDINE]
MCC (HeLa [1]): > 400 µg/mL
MIC (Vero [2]): > 400 µg/mL
MIC (E6SM [3]): 0.05 µg/mL (≈ 0.15 µM)
MCC (E6SM [4]): > 400 µg/mL
MIC (HEL [5]): 0.009 µg/mL (≈ 0.027 µM)
MIC (Vero [6]): > 400 µg/mL
MIC (Vero [7]): > 400 µg/mL
MIC (E6SM [8]): 400 µg/mL (≈ 1200 µM)
MCC (HEL [9]): > 50 µg/mL
MIC (Vero [10]): > 400 µg/mL
MIC (HeLa [11]): > 400 µg/mL
MIC (HEL [12]): > 50 µg/mL
MIC (E6SM [13]): 80 µg/mL (≈ 240 µM)
MIC (E6SM [14]): > 400 µg/mL
MIC (Vero [15]): > 400 µg/mL
MIC (HeLa [16]): > 400 µg/mL
MIC (E6SM [17]): 3.2 µg/mL (≈ 9.61 µM)
MCC (Vero [18]): > 400 µg/mL

C/C(=N/N=C(/S)N/N=C(\S)c1ccc(Cl)cc1Cl)C12CC3CC(CC(C3)C1)C2
MCC (HeLa [1]): 16 µg/mL
MIC (Vero [2]): > 3.2 µg/mL
TGI (MOLT-4 [19]): 100 µM
MIC (E6SM [3]): > 16 µg/mL
CC50 (K562 [20]): 100 µM
MCC (E6SM [4]): 80 µg/mL
MIC (HEL [5]): > 2 µg/mL
MIC (Escherichia coli): > 2130 µg/mL
MIC (Vero [6]): > 3.2 µg/mL
MIC (Vero [7]): > 3.2 µg/mL
MIC (HEL [21]): > 2 µg/mL
MIC (Klebsiella pneumoniae): > 2130 µg/mL
MIC (E6SM [22]): 9.6 µg/mL (≈ 21.1 µM)
MIC (Staphylococcus hominis): 133 µg/mL (≈ 292 µM)
CC50 (RPMI-8226 [23]): 100 µM
TGI (CCRF-CEM [24]): 100 µM
MCC (HEL [9]): 5 µg/mL
TGI (HuT78 [25]): 100 µM
EC50 (MT4 [26]): > 2 µM
MIC (Vero [10]): > 3.2 µg/mL
TGI (RPMI-8226 [27]): 29.3 µM
MIC (HeLa [11]): > 3.2 µg/mL
TGI (HL-60 [28]): 6.2 µM
GI50 (CCRF-CEM [29]): 5.7 µM
MIC (HEL [12]): > 2 µg/mL
MIC (E6SM [13]): 9.6 µg/mL (≈ 21.1 µM)
TGI (K562 [30]): 100 µM
CC50 (HL-60 [31]): 10 µM
GI50 (HuT78 [32]): 8.1 µM
EC50 (MT4 [33]): > 2 µM
GI50 (MOLT-4 [34]): 32.4 µM
MIC (E6SM [14]): > 16 µg/mL
MIC (Vero [15]): > 3.2 µg/mL
MIC (HeLa [16]): > 3.2 µg/mL
CC50 (MT4 [35]): 2.4 µM
TGI (HuT78 [36]): 100 µM
GI50 (K562 [37]): 24.7 µM
MIC (E6SM [17]): > 16 µg/mL
MCC (Vero [18]): 16 µg/mL
TGI (MOLT-4 [38]): 100 µM
MIC [39]: 133 µg/mL (≈ 292 µM)
GI50 (HL-60 [40]): 2.4 µM
MIC (Staphylococcus aureus): 133 µg/mL (≈ 292 µM)
TGI (CCRF-CEM [41]): 100 µM
GI50 (RPMI-8226 [42]): 3.6 µM
